Earlier results in PMC8711005, “Phase 1 Dose-Escalation Study of Plasma Kallikrein Inhibitor THR-149 for the Treatment of Diabetic Macular Edema” (Translational Vision Science & Technology, 2021).

Tested on: subjects with center-involved DME
Conditions: single IVT injection, 14 subjects with center-involved DME, Month 3
From the text: A recent phase I study of another PKal inhibitor, KVD001, enrolled 14 subjects with center-involved DME who had received prior anti-VEGF treatment.[30] Baseline demographics were similar to those in the current study, with some notable differences in baseline ocular characteristics, including higher baseline BCVA and lower CST relative to those enrolled in our study. The maximum BCVA increase following a single IVT injection of KVD001 was 4.1 ETDRS letters at Month 3, with a corresponding mean reduction of 23 µm in CST. Rescue treatment was allowed; however, the frequency and imputation method ...

CCOc1ccc(C[C@@H](NC(=O)c2ccccc2)C(=O)N[C@@H](Cc2ccccc2)C(=O)NCc2ccc(CN)cc2)cc1 [KVD001]
Maximum BCVA increase: 4.1 ETDRS letters | Mean reduction in CST: 23 µm
